These compounds were tested against T1, Full-length USP19 (Homo sapiens, UniProt O94966) (assay: USP19 fluorescence polarisation (FP) assay, Ubiquitin-Lys-TAMRA substrate). Conditions: average of at least two duplicate experiments.
T1 construct: Full-length USP19 was purchased from Boston Biochem (E-576); purchased Boston Biochem E-576
T1 sequence (O94966 1-1318): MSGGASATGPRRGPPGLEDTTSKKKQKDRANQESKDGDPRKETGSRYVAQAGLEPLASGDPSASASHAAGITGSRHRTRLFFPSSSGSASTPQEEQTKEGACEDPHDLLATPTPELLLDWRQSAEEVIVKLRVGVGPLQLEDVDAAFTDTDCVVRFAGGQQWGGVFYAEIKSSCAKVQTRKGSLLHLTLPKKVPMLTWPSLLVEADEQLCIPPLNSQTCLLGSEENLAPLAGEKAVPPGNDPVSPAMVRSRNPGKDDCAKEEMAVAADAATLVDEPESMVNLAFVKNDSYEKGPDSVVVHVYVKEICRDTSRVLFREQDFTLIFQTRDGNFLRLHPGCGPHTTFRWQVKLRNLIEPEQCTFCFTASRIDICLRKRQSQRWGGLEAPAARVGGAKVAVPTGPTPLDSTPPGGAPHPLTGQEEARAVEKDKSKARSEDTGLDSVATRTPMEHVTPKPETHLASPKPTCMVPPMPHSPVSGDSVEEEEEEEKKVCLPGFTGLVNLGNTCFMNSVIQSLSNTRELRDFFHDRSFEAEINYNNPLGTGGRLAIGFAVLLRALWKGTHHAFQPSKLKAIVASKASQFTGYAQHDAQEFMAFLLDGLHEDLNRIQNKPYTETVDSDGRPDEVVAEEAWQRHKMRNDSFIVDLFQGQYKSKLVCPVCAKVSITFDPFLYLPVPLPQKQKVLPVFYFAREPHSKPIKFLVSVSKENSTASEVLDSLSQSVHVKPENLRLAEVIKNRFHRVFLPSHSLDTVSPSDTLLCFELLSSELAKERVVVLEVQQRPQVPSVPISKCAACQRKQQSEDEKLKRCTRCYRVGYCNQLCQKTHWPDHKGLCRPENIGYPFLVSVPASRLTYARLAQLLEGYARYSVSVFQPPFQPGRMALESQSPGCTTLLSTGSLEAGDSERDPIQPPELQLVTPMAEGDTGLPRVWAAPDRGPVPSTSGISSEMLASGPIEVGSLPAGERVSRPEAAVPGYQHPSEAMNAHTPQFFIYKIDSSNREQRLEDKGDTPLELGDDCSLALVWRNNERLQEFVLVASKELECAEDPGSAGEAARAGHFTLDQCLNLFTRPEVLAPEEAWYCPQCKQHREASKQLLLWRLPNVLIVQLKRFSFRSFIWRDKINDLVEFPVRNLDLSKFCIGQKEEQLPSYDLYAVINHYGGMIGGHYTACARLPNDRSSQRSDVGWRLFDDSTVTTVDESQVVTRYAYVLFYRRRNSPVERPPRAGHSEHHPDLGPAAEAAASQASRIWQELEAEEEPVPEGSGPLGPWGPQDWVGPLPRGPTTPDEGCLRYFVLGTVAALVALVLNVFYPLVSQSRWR
Assay type: biochemical
Method: USP19 activity was determined in a fluorescence polarisation (FP) homogeneous assay using the isopeptide Ubiquitin-Lys-TAMRA substrate (either AUB-101, Almac Sciences Scotland Limited, or U-558, Boston Biochem, both of which gave identical results). Full-length USP19 was purchased from Boston Biochem (E-576). Unless otherwise stated, all other reagents were purchased from Sigma. Enzymatic reactions were conducted in black flat bottom polystyrene 384-well plates (Nunc) and 30 μL total volume. USP19 (2.5 nM, 10 μL) was incubated in assay buffer (50 mM HEPES (pH 7.4), 150 mM NaCl, 5 mM DTT, 0.05% BSA (w/v), 0.05% CHAPS) in the presence or absence of inhibitor (10 μL). Inhibitors were stored as 10 mM DMSO stocks in an inert environment (low humidity, dark, low oxygen, rt) using the StoragePod® system (Roylan Developments) and serial dilutions were prepared in buffer just prior to the assay (from 200 μM to 2 μM, 8-18 data point curve). Following incubation at RT for 30 min, the enzymatic reactions were initiated by dispensing the Ub substrate (500 nM, 10 μL). FP was measured every 15 min over a period of 90 min (within the linear range of the assay) using a Synergy 4 plate reader (BioTek) exciting at 530 nm and measuring the amount of parallel and perpendicular light at 575 nm. The FP signal was subsequently normalised to the no compound control. Data were plotted and fitted, and the concentrations resulting in 50% inhibition (IC50) were calculated using the non-linear regression curve fitting model using GraphPad (Prism). IC50 values for the inhibitors of the invention are compiled in Tables 1 and 3 and represent the average of at least two duplicate experiments.
With N[C@@H]1CCN(C(=O)N2CCC(Cn3cnc4c(cnn4C4CC4)c3=O)C3(CCCC3)C2)[C@H](c2ccccc2)C1 (stereo partly drawn) [Example 35, 5-((7-((2S,4R)-4-Amino-2-phenylpiperidine-1-carbonyl)-7-azaspiro[4.5]decan-10-yl)methyl)-1-cyclopropyl-1,5-dihydro-4H-pyrazolo[3,4-d] pyrimidin-4-one] the IC50 was < 10 nM.
With CC1(c2cc(=O)n(CC3CCN(C(=O)N4CC[C@@H](N)C[C@H]4c4ccccc4)CC34CCCC4)cn2)CC1 (stereo partly drawn) [Example 36, 3-((7-((2S,4R)-4-Amino-2-phenylpiperidine-1-carbonyl)-7-azaspiro[4.5]decan-10-yl)methyl)-6-(1-methylcyclopropyl) pyrimidin-4(3H)-one] the IC50 was < 10 nM.
For N[C@@H]1CCN(C(=O)N2CCC(Cn3cnc4cc(F)c(F)cc4c3=O)C3(CCCC3)C2)[C@H](c2ccccc2)C1 (stereo partly drawn) [Example 37, 3-((7-((2S,4R)-4-Amino-2-phenylpiperidine-1-carbonyl)-7-azaspiro[4.5]decan-10-yl)methyl)-6,7-difluoroquinazolin-4(3H)-one], the IC50 was < 10 nM.
For N[C@@H]1CCN(C(=O)N2CCC(Cn3ccc(C(F)F)cc3=O)C3(CCCC3)C2)[C@H](c2ccccc2)C1 (stereo partly drawn) [Example 38, 1-((7-((2S,4R)-4-Amino-2-phenylpiperidine-1-carbonyl)-7-azaspiro[4.5]decan-10-yl)methyl)-4-(difluoromethyl) pyridin-2(1H)-one], the IC50 was < 10 nM.
With Cc1ccn(CC2CCN(C(=O)N3CC[C@@H](N)C[C@H]3c3ccccc3)CC23CCCC3)c(=O)c1 (stereo partly drawn) [Example 39, 1-((7-((2S,4R)-4-Amino-2-phenylpiperidine-1-carbonyl)-7-azaspiro[4.5]decan-10-yl)methyl)-4-methylpyridin-2(1H)-one] the IC50 was 10 to 100 nM.
For CSc1ncc2c(=O)n(CC3CCN(C(=O)N4CC[C@@H](N)C[C@H]4c4ccccc4)CC34CCCC4)ccc2n1 (stereo partly drawn) [Example 40, 6-((7-((2S,4R)-4-Amino-2-phenylpiperidine-1-carbonyl)-7-azaspiro[4.5]decan-10-yl)methyl)-2-(methylthio)pyrido [4,3-d]pyrimidin-5(6H)-one], the IC50 was < 10 nM.
In the case of N[C@@H]1CCN(C(=O)N2CCC(CN3CCOCC3=O)C3(CCCC3)C2)[C@H](c2ccccc2)C1 (stereo partly drawn) [Example 41, 4-((7-((2S,4R)-4-Amino-2-phenylpiperidine-1-carbonyl)-7-azaspiro[4.5]decan-10-yl)methyl) morpholin-3-one], the IC50 is reported as 10 to 100 nM.
N[C@@H]1CCN(C(=O)N2CCC(CN3Cc4nccn4CC3=O)C3(CCCC3)C2)[C@H](c2ccccc2)C1 (stereo partly drawn) [Example 42, 7-((7-((2S,4R)-4-Amino-2-phenylpiperidine-1-carbonyl)-7-azaspiro[4.5]decan-10-yl)methyl)-7,8-dihydroimidazo[1,2-a]pyrazin-6(5H)-one] was tested, and the IC50 was 10 to 100 nM.
With N[C@@H]1CCN(C(=O)N2CCC(Cn3ccc(C(F)(F)F)cc3=O)C3(CCCC3)C2)[C@H](c2ccccc2)C1 (stereo partly drawn) [Example 43, 1-((7-((2S,4R)-4-Amino-2-phenylpiperidine-1-carbonyl)-7-azaspiro[4.5]decan-10-yl)methyl)-4-(trifluoromethyl) pyridin-2(1H)-one] the IC50 was 10 to 100 nM.
In the case of O=C(N1CC[C@@H](Cn2ccc(-c3ccccc3)cc2=O)C2(CCCC2)C1)N1CC[C@@H](O)C[C@H]1c1ccccc1 [Example 44, 1-(((R)-7-((2S,4R)-4-Hydroxy-2-phenylpiperidine-1-carbonyl)-7-azaspiro[4.5]decan-10-yl)methyl)-4-phenylpyridin-2(1H)-one], the IC50 is reported as 10 to 100 nM.
In the case of CCN[C@@H]1CCN(C(=O)N2CC[C@@H](Cn3ccc(-c4ccccc4)cc3=O)C3(CCCC3)C2)[C@H](c2ccccc2)C1 [Example 45, 1-(((R)-7-((2S,4R)-4-(Ethylamino)-2-phenylpiperidine-1-carbonyl)-7-azaspiro[4.5]decan-10-yl)methyl)-4-phenylpyridin-2(1H)-one], the IC50 is reported as < 10 nM.
For CN(C)[C@@H]1CCN(C(=O)N2CC[C@@H](Cn3ccc(-c4ccccc4)cc3=O)C3(CCCC3)C2)[C@H](c2ccccc2)C1 [Example 46, 1-(((R)-7-((2S,4R)-4-(Dimethylamino)-2-phenylpiperidine-1-carbonyl)-7-azaspiro[4.5]decan-10-yl)methyl)-4-phenylpyridin-2(1H)-one], the IC50 was 10 to 100 nM.
For CN[C@@H]1CCN(C(=O)N2CCC(Cn3ccc(-c4ccccc4)cc3=O)CC2)[C@H](c2ccccc2)C1 [Example 47, 1-((1-((2S,4R)-4-(Methylamino)-2-phenylpiperidine-1-carbonyl)piperidin-4-yl)methyl)-4-phenylpyridin-2(1H)-one], the IC50 was < 10 nM.
CN[C@@H]1CCN(C(=O)N2CC[C@@H](Cn3ccc(-c4ccccc4)cc3=O)C3(CCCC3)C2)[C@H](c2ccccc2)C1 [Example 48, 1-(((R)-7-((2S,4R)-4-(Methylamino)-2-phenylpiperidine-1-carbonyl)-7-azaspiro[4.5]decan-10-yl)methyl)-4-phenylpyridin-2(1H)-one] was tested, and the IC50 was < 10 nM.
Compound C[C@H](CC(F)(F)F)C(=O)N1CCC(N)(Cn2cnc(-c3ccccc3)cc2=O)C2(CCCC2)C1 (stereo partly drawn) [Example 49, 3-((10-Amino-7-((R)-4,4,4-trifluoro-2-methylbutanoyl)-7-azaspiro[4.5]decan-10-yl)methyl)-6-phenylpyrimidin-4(3H)-one] has an IC50 of 100 to 1000 nM.
With O=C(N1CC[C@@H](Cn2ccc(-c3ccccc3)cc2=O)C2(CCCC2)C1)N1CC[C@@H](NC2CS(=O)(=O)C2)C[C@H]1c1ccccc1 [Example 50, 1-(((R)-7-((2S,4R)-4-((1,1-Dioxidothietan-3-yl)amino)-2-phenylpiperidine-1-carbonyl)-7-azaspiro[4.5]decan-10-yl)methyl)-4-phenylpyridin-2(1H)-one] the IC50 was 10 to 100 nM.
For O=C(N1CC[C@@H](Cn2ccc(-c3ccccc3)cc2=O)C2(CCCC2)C1)N1CC[C@H](NC2CS(=O)(=O)C2)C[C@H]1c1ccccc1 [Example 51, 1-(((R)-7-((2S,4S)-4-((1,1-Dioxidothietan-3-yl)amino)-2-phenylpiperidine-1-carbonyl)-7-azaspiro[4.5]decan-10-yl)methyl)-4-phenylpyridin-2(1H)-one], the IC50 was 100 to 1000 nM.
Work on C[C@@]1(O)CCN(C(=O)N2CC[C@@H](Cn3ccc(-c4ccccc4)cc3=O)C3(CCCC3)C2)[C@H](c2ccccc2)C1 [Example 52, 1-(((R)-7-((2S,4R)-4-Hydroxy-4-methyl-2-phenylpiperidine-1-carbonyl)-7-azaspiro[4.5]decan-10-yl)methyl)-4-phenylpyridin-2(1H)-one] yielded an IC50 of 100 to 1000 nM.
With CN[C@@H]1CCN(C(=O)N2CC[C@@H](Cn3ccc(-c4ccccc4OC)cc3=O)C3(CCCC3)C2)[C@H](c2ccccc2)C1 [Example 53, 4-(2-Methoxyphenyl)-1-(((R)-7-((2S,4R)-4-(methylamino)-2-phenylpiperidine-1-carbonyl)-7-azaspiro[4.5]decan-10-yl)methyl)pyridin-2(1H)-one] the IC50 was < 10 nM.
For CN[C@@H]1CCN(C(=O)N2CC[C@@H](Cn3ccc(-c4ccccc4C)cc3=O)C3(CCCC3)C2)[C@H](c2ccccc2)C1 [Example 54, 1-(((R)-7-((2S,4R)-4-(Methylamino)-2-phenylpiperidine-1-carbonyl)-7-azaspiro[4.5]decan-10-yl)methyl)-4-(o-tolyl)pyridin-2(1H)-one], the IC50 was < 10 nM.

From patent US20240327382A1 (ALMAC DISCOVERY LIMITED, priority 2021, published 2024)
